Here are results for one compound from US8383642B2, “Spiropiperidine compounds” (Eli Lilly and Company, priority 2009, dated 2013).

In one experiment the target is T1, Gal4 PPARα (Homo sapiens, UniProt Q07869).
T1 construct: expressed in transfected cells; host or cells: CV1 (African green monkey kidney)
T1 sequence (Q07869 239-466 limits assumed): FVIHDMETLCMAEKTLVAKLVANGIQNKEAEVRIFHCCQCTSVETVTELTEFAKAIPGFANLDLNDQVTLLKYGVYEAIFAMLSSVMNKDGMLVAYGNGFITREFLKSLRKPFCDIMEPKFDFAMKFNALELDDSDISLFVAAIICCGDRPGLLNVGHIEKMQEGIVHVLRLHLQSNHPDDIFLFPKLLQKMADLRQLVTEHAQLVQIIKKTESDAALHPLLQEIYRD
Put plainly: Gal4 PPARα reporter functional assay (CTF). It is filed as cell-based. The note with it: examined up to 10 μM; CV1 cells; luciferase. The text has this:
(§1) Gal4 PPARα, Gal4 PPARδ, and PPARγ reporter functional assays are also used to monitor the selectivity of exemplified compounds. CV1 cells, which are derived from the renal tissue of an African green monkey, are transfected with various receptor and reporter plasmids using Fugene. For the Gal4 PPARα and PPARδ assays, a reporter plasmid containing five tandem copies of the yeast transcription protein Gal4 response element, cloned upstream of a firefly luciferase gene driven by the major late promoter of adenovirus, is transfected together with a Simian Virus 40 (SV40) driven plasmid constitutively expressing a hybrid protein containing the Gal4 DNA binding domain (DBD), and either the PPARα or PPARδ ligand binding. For the PPARγ assay, plasmids encoding PPARγ and RXRα, both driven by a cytomegalovirus (CMV) promoter are transfected together with a plasmid containing luciferase reporter cDNA driven by the TK promoter and a receptor response element (2×PPRE). Cells are transfected in T225 cm^2 cell culture flasks in DMEM media with 5% charcoal-stripped FBS. […] After 24 hours incubation with compounds, cells are lysed and luciferase activity is determined as a measure of receptor activation by luminescence. […] The maximum percent stimulation is determined versus maximum stimulation obtained with 10 μM of an appropriate PPAR agonist reference compound. […]

Another experiment addresses T2, Gal4 PPARδ (Homo sapiens, UniProt Q03181).
T2 construct: expressed in transfected cells; host or cells: CV1 (African green monkey kidney)
T2 sequence (Q03181 211-439 limits assumed): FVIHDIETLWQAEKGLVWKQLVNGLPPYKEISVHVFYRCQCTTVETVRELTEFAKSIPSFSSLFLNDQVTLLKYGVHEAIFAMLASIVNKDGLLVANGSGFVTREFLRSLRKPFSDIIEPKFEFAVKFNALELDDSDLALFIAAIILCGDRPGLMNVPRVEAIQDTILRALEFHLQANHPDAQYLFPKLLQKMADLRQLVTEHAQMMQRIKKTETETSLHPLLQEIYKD
In words: Gal4 PPARδ reporter functional assay (CTF). It is filed as cell-based. The note with it: examined up to 10 μM; CV1 cells; luciferase.
Text: as §1

Molecules are shown by their SMILES.

Take `CC#C[C@@H](CC(=O)O)c1ccc(OCc2ccc(CN3CCC4(C=Cc5ccccc54)CC3)cc2)cc1` [Example 1, (3S)-3-(4-{[4-(1′H-Spiro[indene-1,4′-piperidin]-1′-ylmethyl)benzyl]oxy}phenyl)hex-4-ynoic acid]: the functional activation result at Gal4 PPARα and at Gal4 PPARδ was “No functional activation” each time.
